# Laboratory results reported in patent US20260240976A1, “T[…] VACCINES BASED ON VALIDATED TARGET EPITOPES” (Deutsches Krebsforschungszentrum Stiftung des öffentlichen …, priority 2023, published 2026).
# System: short-term antigen-specific T cell lines generated from PBMCs
# Test: Interferon-γ ELISpot assay on short-term antigen-specific T cell lines; for ELISpot: Immungenicity of the peptide shown by IFN-gamma ELISPOT analysis: key: +: ELISPOT: Immungenicity of the peptide shown by IFN-gamma ELISPOT analysis; +*: *highlights data from published resources; *highlights data from published resources
# Type: cell-based, human
# Details: HLA restriction A01
row,Substance,ELISpot: Immungenicity of the peptide shown by IFN-gamma ELISPOT analysis
1,132 (TTDLYCYEQL; Human papillomavirus 16) [compound 132],+
2,8 (SKISEYRHYCY; Human papillomavirus 16) [compound 8],+
3,9 (SEYRHYCYSLY; Human papillomavirus 16) [compound 9],+
4,10 (ETTDLYCY; Human papillomavirus 16) [compound 10],+

# Same assay, conditions: HLA restriction A02
row,Substance,ELISpot: Immungenicity of the peptide shown by IFN-gamma ELISPOT analysis
1,47 (KLPQLCTELQT; Human papillomavirus 16) [compound 47],+
2,51 (TLHEYMLDLQP; Human papillomavirus 16) [compound 51],+

# Same assay, conditions: HLA restriction A03
row,Substance,ELISpot: Immungenicity of the peptide shown by IFN-gamma ELISPOT analysis
1,67 (MFQDPQERPRK; Human papillomavirus 16) [compound 67],+
2,72 (KFYSKISEYR; Human papillomavirus 16) [compound 72],+
3,69 (AVCDKCLK; Human papillomavirus 16) [compound 69],+
4,54 (TTLEQQYNK; Human papillomavirus 16) [compound 54],+
5,77 (RCINCQKPLCP; Human papillomavirus 16) [compound 77],+
6,78 (KQRFHNIRGR; Human papillomavirus 16) [compound 78],+
7,76 (LIRCINCQK; Human papillomavirus 16) [compound 76],+

# Same assay, conditions: HLA restriction A24
row,Substance,ELISpot: Immungenicity of the peptide shown by IFN-gamma ELISPOT analysis
1,94 (HLDKKQRFHNI; Human papillomavirus 16) [compound 94],+
2,93 (YSLYGTTL; Human papillomavirus 16) [compound 93],+

# Same assay, conditions: HLA restriction B07
row,Substance,ELISpot: Immungenicity of the peptide shown by IFN-gamma ELISPOT analysis
1,105 (KPLCDLLI; Human papillomavirus 16) [compound 105],+
2,106 (RCMSCCRSSR; Human papillomavirus 16) [compound 106],+
3,104 (RPRKLPQLCT; Human papillomavirus 16) [compound 104],+

# Same assay, conditions: HLA restriction B15
row,Substance,ELISpot: Immungenicity of the peptide shown by IFN-gamma ELISPOT analysis
1,120 (IVYRDGNPYAV; Human papillomavirus 16) [compound 120],+
2,121 (AVCDKCLKF; Human papillomavirus 16) [compound 121],+
3,146 (RGRWTGRCM; Human papillomavirus 16) [compound 146],+
4,127 (QQYNKPLCDL; Human papillomavirus 16) [compound 127],+
5,122 (CLKFYSKISEY; Human papillomavirus 16) [compound 122],+
6,9 (SEYRHYCYSLY; Human papillomavirus 16) [compound 9],+
7,147 (AGQAEPDRAHY; Human papillomavirus 16) [compound 147],+
8,148 (FYSKISEY; Human papillomavirus 16) [compound 148],+
9,111 (QQLLRREVY; Human papillomavirus 16) [compound 111],+
10,145 (KISEYRHY; Human papillomavirus 16) [compound 145],+
11,118 (LLRREVYDFAF; Human papillomavirus 16) [compound 118],+
12,128 (CQKPLCPEE; Human papillomavirus 16) [compound 128],+
13,124 (YSKISEYRHY; Human papillomavirus 16) [compound 124],+
14,125 (SKISEYRHY; Human papillomavirus 16) [compound 125],+
15,129 (KQRHLDKKQRF; Human papillomavirus 16) [compound 129],+

# Same assay, conditions: comparison among the peptides in Table 1
row,Substance,"rates of immunoactivation in PBMC samples, CD8 T cell responses and/or numbers of HPV16 positive cell lines presenting the peptide as HLA-complexes"
1,80 (VYCKQQLL; Human papillomavirus 16) [compound 80],"highest rates of immunoactivation in PBMC samples, to induce the strongest CD8 T cell responses, and/or shown to be presented as HLA-complexes by the highest numbers of HPV16 positive cell lines"
2,13 (YMLDLQPET; Human papillomavirus 16) [compound 13],"highest rates of immunoactivation in PBMC samples, to induce the strongest CD8 T cell responses, and/or shown to be presented as HLA-complexes by the highest numbers of HPV16 positive cell lines"
3,2 (HGDTPTLHEY; Human papillomavirus 16) [compound 2],"highest rates of immunoactivation in PBMC samples, to induce the strongest CD8 T cell responses, and/or shown to be presented as HLA-complexes by the highest numbers of HPV16 positive cell lines"
4,82 (EYRHYCYSL; Human papillomavirus 16) [compound 82],"highest rates of immunoactivation in PBMC samples, to induce the strongest CD8 T cell responses, and/or shown to be presented as HLA-complexes by the highest numbers of HPV16 positive cell lines"
5,98 (TPTLHEYML; Human papillomavirus 16) [compound 98],"highest rates of immunoactivation in PBMC samples, to induce the strongest CD8 T cell responses, and/or shown to be presented as HLA-complexes by the highest numbers of HPV16 positive cell lines"
6,18 (RTLEDLLMGT; Human papillomavirus 16) [compound 18],"highest rates of immunoactivation in PBMC samples, to induce the strongest CD8 T cell responses, and/or shown to be presented as HLA-complexes by the highest numbers of HPV16 positive cell lines"
7,54 (TTLEQQYNK; Human papillomavirus 16) [compound 54],"highest rates of immunoactivation in PBMC samples, to induce the strongest CD8 T cell responses, and/or shown to be presented as HLA-complexes by the highest numbers of HPV16 positive cell lines"
